Holding throughout (type): cell-based, human
The subject of assay [1] is vascular endothelial cells differentiated from normal iPSCs. As to the kind of experiment: Morphology of vascular endothelial cells differentiated from normal iPSCs after LysoGb3 treatment. The following applies: treated for 9 days; FIG. 17. On the procedure:
Particularly, the vascular endothelial cells differentiated from normal iPSCs were treated with LysoGb3 protein (MATREYA LLC, USA) for 9 days, and then the morphology of the cells was confirmed.

The test system of assay [2] is KDR, eNOS and TSP1 genes in vascular endothelial cells differentiated from normal iPSCs. The assay is described as follows: RT-PCR of vasculopathy-related genes after LysoGb3 treatment. On the procedure:
Particularly, the vascular endothelial cells differentiated from normal iPSCs were treated with LysoGb3 protein for 1, 3 or 5 days, and RNA was extracted from the cells using easy-BLUE (Intron). Then, RT-PCR was performed in the conventional manner to confirm the RNA expression levels of KDR, eNOS and TSP1 (Thrombospondin 1) genes related to vasculopathy. As a result, as shown in FIGS. 18a to 18c, the RNA expression levels of KDR, eNOS and TSP1 genes were increased 1 day after the treatment of LysoGb3 protein.

Assay [3] has as its system TSP1, KDR, eNOS and phospho-AKT in vascular endothelial cells differentiated from normal iPSCs. As to the kind of experiment: Western blotting of vasculopathy-related proteins after LysoGb3 treatment. Particulars: treated for 3, 6, or 9 days; Western blot, FIG. 19. On the procedure: (§1) Particularly, the FB-iPSCs prepared in Example 1 were treated with Fabrazyme, a therapeutic agent for Fabry disease, and starvation media in various combinations. Pro-Prep solution (Intron Biotechnology, Korea) was added to each sample and reacted at 4° C., followed by centrifugation at 1300 rpm for 10 minutes to obtain a supernatant. The obtained supernatant was electrophoresed on acrylamide gel and transferred to a nitrocellulose membrane, followed by blocking with 4% skim milk. Then, anti-LC3 antibody (1:1000, Santacruz, USA) was treated thereto and reacted at 4° C. for 24 hours, followed by washing three times with TBS containing tween-20. The protein expression level was confirmed by the conventional Western blotting. The expression level of each protein was corrected using GAPDH as a control.
The changes in the expression levels of vasculopathy-related proteins by Gb3 protein were confirmed using Western blotting. Particularly, the vascular endothelial cells differentiated from normal iPSCs were treated with LysoGb3 protein for 3, 6, or 9 days, and Western blotting was performed in the same manner as described in Experimental Example <3-1>. At this time, anti-TSP1 antibody (1:1000, Santacruz, USA), anti-KDR antibody (1:1000, Cell Signaling Technologies, USA), anti-eNOS antibody (1:1000, Cell Signaling Technologies, USA), anti-AKT antibody (1:1000, Cell Signaling Technologies, USA), and anti-phospho-AKT antibody (1:1000, Cell Signaling Technologies, USA) were used as antibodies.
(In western blotting, separated proteins are transferred to a membrane and probed.)

The test system of assay [4] is TSP1 protein in vascular endothelial cells differentiated from normal iPSCs. As to the kind of experiment: Immunostaining of TSP1 protein expression location after LysoGb3 treatment. The following applies: FIG. 20.
The test system of assay [5] is vascular endothelial cells differentiated from FB-iPSCs. The assay is described as follows: Morphology of vascular endothelial cells differentiated from FB-iPSCs after TGF-β inhibitor treatment. The following applies: for therapeutic effect on vasculopathy in patients with Fabry disease: conclusion of Experimental Example 9, patient-derived vascular endothelial cells. On the procedure: Particularly, the FB-iPSCs prepared in Example 1 were cultured in a feeder-free state for 3 days. Thereafter, the medium was exchanged with RPMI-1640 medium containing 1% B27, to which 50 ng/ml of activin A and 20 ng/ml of BPM4 were added as growth factors, and then the cells were cultured for 2 days to differentiate into mesoderm cells. The medium was exchanged with RPMI-1640 medium containing 0.5% B27, to which 50 ng/ml of VEGFA and 50 ng/ml of bFGF were added as growth factors, and then the cells were cultured for 2 days to differentiate into vascular progenitors. CD34 positive cells capable of differentiating into vascular endothelial cells were isolated from the induced vascular progenitors by performing magnetic activated cell sorting (MACS) using CD34 magnetic beads. The isolated CD34 positive cells were further cultured for 2 days in EGM-2 medium (Lonza, USA) containing 100 ng/ml of VEGF-A and 100 ng/ml of bFGF as growth factors to differentiate into vascular endothelial cells. Particularly, using the control group treated with only Fabrazyme on the vascular endothelial cells prepared in Example 2, the experimental group treated with only SB431542 (Cayman Chemical, USA), and the experimental group treated with Fabrazyme and SB431542, the morphology of the cells was confirmed. Particularly, using the control group treated with only Fabrazyme on the vascular endothelial cells prepared in Example 2, the experimental group treated with Fabrazyme and SB431542, and the experimental group treated with Fabrazyme and losartan (Cayman Chemical, USA), the morphology of the cells was confirmed.

The test system of assay [6] is TSP1, KDR and eNOS proteins in vascular endothelial cells differentiated from FB-iPSCs. As to the kind of experiment: Western blotting of vasculopathy-related proteins in vascular endothelial cells differentiated from FB-iPSCs. On the procedure: as §1
Particularly, the vascular endothelial cells prepared in Example 2 were treated with Fabrazyme, and Western blotting was performed in the same manner as described in Experimental Example <3-1>. At this time, anti-KDR antibody (1:1000, Cell Signaling Technologies, USA), anti-eNOS antibody (1:1000, Cell Signaling Technologies, USA) and anti-TSP1 antibody (1:1000, Santacruz, USA) were used as antibodies.
Particularly, using the control group treated with only Fabrazyme on the vascular endothelial cells prepared in Example 2 and the experimental group treated with Fabrazyme and SB431542, Western blotting was performed in the same manner as described in Experimental Example <3-1>. At this time, anti-TSP1 antibody (1:1000, Santacruz, USA), anti-KDR antibody (1:1000, Cell Signaling Technologies, USA) and anti-eNOS antibody (1:1000, Cell Signaling Technologies, USA) were used as antibodies.

The subject of assay [7] is vascular endothelial cells differentiated from FB-iPSCs. The assay is described as follows: Tube formation on matrigel (vasculogenesis) of vascular endothelial cells differentiated from FB-iPSCs. The following applies: SB431542 only or Fabrazyme and SB431542 vs Fabrazyme only; FIGS. 23a-23e. On the procedure: On the other hand, 70 μl of matrigel (corning) stock solution was put in a 96-well plate and hardened at 37° C., and then 1×10^4 vascular endothelial cells prepared in Example 2 and EGM2 medium were added thereto to confirm the tube formation. Particularly, using the control group treated with only Fabrazyme on the vascular endothelial cells prepared in Example 2, the experimental group treated with only SB431542, and the experimental group treated with Fabrazyme and SB431542, The tube formation was confirmed in the same manner as described in Experimental Example <4-2>.

Assay [8] deals with TSP1 protein in vascular endothelial cells differentiated from normal iPSCs. As to the kind of experiment: Western blotting after activin A treatment of vascular endothelial cells differentiated from normal iPSCs. Particulars: activin A treatment of normal iPSC-derived vascular endothelial cells; FIG. 15. On the procedure:
as §1
Particularly, the vascular endothelial cells differentiated from normal iPSCs were treated with activin A to activate TGF-β, and Western blotting was performed in the same manner as described in Experimental Example <3-1>. […]

The subject of a further assay is LC3 protein in FB-iPSCs. The assay is described as follows: Western blotting of LC3 protein in FB-iPSCs. The following applies: Fabrazyme and starvation media in various combinations, vs normal cells, FIG. 4. On the procedure:
as §1

For assay [9], the system named is LC3, Beclin 1 and ubiquitin proteins in vascular endothelial cells of patients with Fabry disease. The assay is described as follows: Western blotting of LC3, Beclin 1 and ubiquitin in vascular endothelial cells of patients with Fabry disease. On the procedure: as §1
Particularly, vascular endothelial cells were isolated from the dermal tissue obtained from the patients with Fabry disease of Example 1, to which Fabrazyme was treated. Then, the expression levels of LC3, Beclin 1 and ubiquitin proteins were confirmed by performing Western blotting in the same manner as described in Experimental Example <3-1>. At this time, anti-LC3 antibody (1:1000, Santacruz, USA), anti-Beclin 1 antibody (1:500, Santacruz, USA), and anti-ubiquitin antibody (1:1000, Santacruz, USA) were used as antibodies.

Assay [10] has as its system SMAD2 protein phosphorylation in vascular endothelial cells differentiated from FB-iPSCs. As to the kind of experiment: Western blotting of SMAD2 phosphorylation (TGF-β activation) in vascular endothelial cells differentiated from FB-iPSCs. Particulars: Fabrazyme treatment; vs normal control group; FIG. 14. On the procedure:
as §1
Particularly, the vascular endothelial cells prepared in Example 2 were treated with Fabrazyme, and Western blotting was performed in the same manner as described in Experimental Example <3-1>. At this time, anti-SMAD2 antibody (1:1000, Cell Signaling Technologies, USA) and anti-phospho-SMAD2 antibody (1:1000, Cell Signaling Technologies, USA) were used as antibodies.

Setting [11] is: given with Fabrazyme vs Fabrazyme only, Fab #1, Fab #2 (FIGS. 24a, 24b).
Where [12] appears, read: Fabrazyme and SB431542 vs Fabrazyme only, Western blot, FIG. 22.
The mark [13] stands for this setting: vascular endothelial cells of Fabry patients, Fabrazyme treatment, vs normal cells, FIG. 5.

As to `CCCCCCCCCCCCC/C=C/[C@@H](O)[C@@H](N)CO[C@@H]1O[C@H](CO)[C@@H](O[C@@H]2O[C@H](CO)[C@H](O[C@H]3O[C@H](CO)[C@H](O)[C@H](O)[C@H]3O)[C@H](O)[C@H]2O)[C@H](O)[C@H]1O` [LysoGb3 protein], the “morphology of the normal vascular endothelial cells” value in assay [1] was “changed to a widening form”. Moreover, in [2] (1 day after the treatment), the “RNA expression level of KDR gene” value was “increased”, the “RNA expression level of TSP1 gene” value is reported as “increased” and the “RNA expression level of eNOS gene” value is given as “increased”. For the same molecule, in assay [2] (after 3 and 5 days), the “RNA expression level of KDR gene” value was “lower than those of the normal control cells” and the “RNA expression level of eNOS gene” value is recorded as “lower than those of the normal control cells”. In [3], the “expression level of KDR protein” value is “decreased”, the “expression level of TSP1 protein” value was “increased”, the “expression level of eNOS protein” value is given as “decreased” and the “phosphorylation of AKT protein” value is given as “decreased”. Besides, the “expression location (distribution) of TSP1 protein” value in assay [4] is “distributed throughout the cells”.

`NC(=O)c1ccc(-c2nc(-c3ccc4c(c3)OCO4)c(-c3ccccn3)[nH]2)cc1` [SB431542]: in assay [5] (SB431542 only or Fabrazyme and SB431542 vs Fabrazyme only, Fab #1-#4 (FIGS. 21a-21e)), the “abnormal morphology of the vascular endothelial cells differentiated from FB-iPSCs” value is given as “restored to normal”. The “therapeutic effect on vasculopathy in patients with Fabry disease” value in assay [5] is given as “showed a therapeutic effect”. The “abnormal morphology of the vascular endothelial cells differentiated from FB-iPSCs” value in assay [5] (setting [11]) is “restored to normal”. For the same molecule, in assay [6] (setting [12]), the “expression level of KDR protein” value is “increased”, the “expression level of TSP1 protein” value is “decreased” and the “expression level of eNOS protein” value is “increased”. In addition, the “tube formation on matrigel” value in [7] is reported as “formed a tube shape”.

For the molecule `CCCCc1nc(Cl)c(CO)n1Cc1ccc(-c2ccccc2-c2nn[nH]n2)cc1` [losartan], the “therapeutic effect on vasculopathy in patients with Fabry disease” value in assay [5] is “could not be confirmed”. Besides, in [5] (setting [11]), the “abnormal morphology of the vascular endothelial cells differentiated from FB-iPSCs” value was “had no effect”.

B1: activin A: growth factor used to activate TGF-β (protein, UniProt P08476 311-426, looked up)
Inhibin beta A chain: GLECDGKVNICCKKQFFVSFKDIGWNDWIIAPSGYHANYCEGECPSHIAGTSGSSLSFHSTVINHYRMRGHSPFANLKSCCVPTKLRPMSMLYYDDGQNIIKKDIQNMIVEECGCS
modifications: Inhibin beta A chain
Consider B1, for which the “expression of TSP1 protein” value in assay [8] is on record as “increased”.

B2: Fabrazyme: recombinant alpha-galactosidase enzyme, a therapeutic agent for Fabry disease (protein, UniProt P06280 32-429, looked up)
Alpha-galactosidase A: LDNGLARTPTMGWLHWERFMCNLDCQEEPDSCISEKLFMEMAELMVSEGWKDAGYEYLCIDDCWMAPQRDSEGRLQADPQRFPHGIRQLANYVHSKGLKLGIYADVGNKTCAGFPGSFGYYDIDAQTFADWGVDLLKFDGCYCDSLENLADGYKHMSLALNRTGRSIVYSCEWPLYMWPFQKPNYTEIRQYCNHWRNFADIDDSWKSIKSILDWTSFNQERIVDVAGPGGWNDPDMLVIGNFGLSWNQQVTQMALWAIMAAPLFMSNDLRHISPQAKALLQDKDVIAINQDPLGKQGYQLRQGDNFEVWERPLSGLAWAVAMINRQEIGGPRSYTIAVASLGKGVACNPACFITQLLPVKRKLGFYEWTSRLRSHINPTGTVLLQLENTMQMSLKDLL
For the molecule B2, the “increased expression level of TSP1 protein by Fabry disease” value in assay [6] (Fabrazyme treatment, vs normal control group, FIG. 13) is on record as “not inhibited”. For the same molecule, the “expression level of LC3 protein” value with LC3 protein in FB-iPSCs is on record as “higher in FB-iPSCs than in normal cells regardless of the Fabrazyme treatment”. Further, the “characteristics of the lysosomal storage disease” value in [9] (after the treatment of Fabrazyme, conclusion of Experimental Example 3) is on record as “not recovered”. Besides, in assay [9] (setting [13]), the “expression level of Beclin 1 protein” value is “higher in vascular endothelial cells of patients with Fabry disease than in normal cells regardless of the Fabrazyme treatment”, the “expression level of LC3 protein” value was “higher in vascular endothelial cells of patients with Fabry disease than in normal cells regardless of the Fabrazyme treatment” and the “expression level of ubiquitin protein” value is listed as “higher in vascular endothelial cells of patients with Fabry disease than in normal cells regardless of the Fabrazyme treatment”. The “phosphorylation level of SMAD2 protein” value in assay [10] is reported as “increased in the vascular endothelial cells derived from patients with Fabry disease compared to the normal control group regardless of the Fabrazyme treatment”.

(Values after patent publication US20220034908A1, “PHARMACEUTICAL COMPOSITION FOR PREVENTING OR TREATING FABRY DISEASE, CONTAINING TSP1 PROTEIN INHIBITOR AS ACTIVE INGREDIENT” (KOREA ADVANCED INSTITUTE OF SCIENCE AND TECHNOLOGY, priority 2018, published 2022).)
